Assay results as given in patent EP1121436B1, “NON-DESENSITIZING AMPA-RECEPTORS” (Max-Planck-Gesellschaft zur Förderung der Wissenschaften …, priority 1998, dated 2000).

Key:
GluR3 L507Y = target: T1, GluR3 L507Y (Rattus norvegicus, UniProt P19492, L507Y); assay: Responses to quisqualate and AMPA and effect of cyclothiazide (outside-out patch); assay type: cell-based
T1 construct: expressed in transfected cells; host or cells: HEK293, transient, pCDNA3

[1] = test system: T504A, E511K or their combined exchange; assay type: cell-based, rat
R6TM1R3(Y521L) = target: T2, R6TM1R3(Y521L) (Rattus norvegicus, UniProt P19492+P42260, A582S/A630S/C576V/C595R/D598Q/D600P/D669E/D672E/E603P/E625D/E665V/E681A/F612L/G615S/H593E/I581V/I639V/INS589HLED/INS599P/K629R/K679E/L568V/L569F/L572I/L608I/L609F/L619F/L626I/M627S/N596D/N605E/P592E/S624C/T607G/T633G/V580L/V601D/V602P/V616L/Y521L/Y566C/Y590N); assay: Responses to kainate and effect of cyclothiazide (outside-out patch); assay type: cell-based; conditions: glutamate evoked current in the presence of 100 µM cyclothiazide
T2 construct: the entire extracellular N-terminal region of GluR3flip was substituted by the corresponding region of GluR6; expressed in transfected cells; host or cells: HEK293, transient

R6TM1R3 = target: T3, R6TM1R3 (Rattus norvegicus, UniProt P19492+P42260, A582S/A630S/C576V/C595R/D598Q/D600P/D669E/D672E/E603P/E625D/E665V/E681A/F612L/G615S/H593E/I581V/I639V/INS589HLED/INS599P/K629R/K679E/L568V/L569F/L572I/L608I/L609F/L619F/L626I/M627S/N596D/N605E/P592E/S624C/T607G/T633G/V580L/V601D/V602P/V616L/Y566C/Y590N); assay: Effect of cyclothiazide on the peak response to glutamate (outside-out patch); assay type: cell-based; conditions: 100 µM cyclothiazide added to the agonist solution, n=13
T3 construct: the entire extracellular N-terminal region of GluR3flip was substituted by the corresponding region of GluR6; expressed in transfected cells; host or cells: HEK293, transient

R3(R6S1) = assay: as above; assay type: cell-based, rat; conditions: 100 µM cyclothiazide added to the agonist solution, n=10
GluR3flip = target: T4, GluR3flip (Rattus norvegicus, UniProt P19492); assay: Block of desensitization by cyclothiazide added to the agonist solution (outside-out patch); assay type: cell-based; conditions: cyclothiazide 100µM added to the agonist solution (10 mM glutamate)
T4 construct: expressed in transfected cells; host or cells: HEK293 (ATCC CRL 1573), transient, pcDNA3

GluR3-S1 chimeras = assay: Responses to saturating kainate concentrations compared with glutamate (outside-out patch); assay type: cell-based, rat; conditions: saturating kainate concentrations (5-10 mM)

T1 sequence (P19492 23-888 isoform P19492-2 L507Y limits assumed): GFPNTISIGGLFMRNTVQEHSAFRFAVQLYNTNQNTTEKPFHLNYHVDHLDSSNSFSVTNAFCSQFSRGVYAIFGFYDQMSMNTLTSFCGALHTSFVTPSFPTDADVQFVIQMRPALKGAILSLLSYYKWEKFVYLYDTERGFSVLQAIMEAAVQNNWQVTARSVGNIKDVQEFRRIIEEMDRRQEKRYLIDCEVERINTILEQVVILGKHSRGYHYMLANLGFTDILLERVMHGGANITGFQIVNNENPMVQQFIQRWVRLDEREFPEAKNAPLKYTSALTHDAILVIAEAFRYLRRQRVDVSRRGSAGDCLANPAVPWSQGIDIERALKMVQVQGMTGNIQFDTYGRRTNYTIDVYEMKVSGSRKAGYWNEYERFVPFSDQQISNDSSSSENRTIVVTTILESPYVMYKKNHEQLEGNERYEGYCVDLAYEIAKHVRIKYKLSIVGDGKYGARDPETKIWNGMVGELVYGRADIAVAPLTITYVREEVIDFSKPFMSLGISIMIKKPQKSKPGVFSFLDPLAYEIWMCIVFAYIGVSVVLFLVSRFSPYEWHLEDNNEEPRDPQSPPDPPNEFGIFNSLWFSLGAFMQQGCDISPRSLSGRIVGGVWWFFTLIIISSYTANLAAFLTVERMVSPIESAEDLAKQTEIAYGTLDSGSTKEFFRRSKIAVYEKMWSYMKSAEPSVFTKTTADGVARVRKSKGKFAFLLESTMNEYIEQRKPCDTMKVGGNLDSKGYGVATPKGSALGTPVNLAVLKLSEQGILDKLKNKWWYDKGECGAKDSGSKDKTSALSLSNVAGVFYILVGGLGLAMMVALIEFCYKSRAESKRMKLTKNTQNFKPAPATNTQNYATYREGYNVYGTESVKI
T3 sequence (P42260+P19492 fused with the stated changes): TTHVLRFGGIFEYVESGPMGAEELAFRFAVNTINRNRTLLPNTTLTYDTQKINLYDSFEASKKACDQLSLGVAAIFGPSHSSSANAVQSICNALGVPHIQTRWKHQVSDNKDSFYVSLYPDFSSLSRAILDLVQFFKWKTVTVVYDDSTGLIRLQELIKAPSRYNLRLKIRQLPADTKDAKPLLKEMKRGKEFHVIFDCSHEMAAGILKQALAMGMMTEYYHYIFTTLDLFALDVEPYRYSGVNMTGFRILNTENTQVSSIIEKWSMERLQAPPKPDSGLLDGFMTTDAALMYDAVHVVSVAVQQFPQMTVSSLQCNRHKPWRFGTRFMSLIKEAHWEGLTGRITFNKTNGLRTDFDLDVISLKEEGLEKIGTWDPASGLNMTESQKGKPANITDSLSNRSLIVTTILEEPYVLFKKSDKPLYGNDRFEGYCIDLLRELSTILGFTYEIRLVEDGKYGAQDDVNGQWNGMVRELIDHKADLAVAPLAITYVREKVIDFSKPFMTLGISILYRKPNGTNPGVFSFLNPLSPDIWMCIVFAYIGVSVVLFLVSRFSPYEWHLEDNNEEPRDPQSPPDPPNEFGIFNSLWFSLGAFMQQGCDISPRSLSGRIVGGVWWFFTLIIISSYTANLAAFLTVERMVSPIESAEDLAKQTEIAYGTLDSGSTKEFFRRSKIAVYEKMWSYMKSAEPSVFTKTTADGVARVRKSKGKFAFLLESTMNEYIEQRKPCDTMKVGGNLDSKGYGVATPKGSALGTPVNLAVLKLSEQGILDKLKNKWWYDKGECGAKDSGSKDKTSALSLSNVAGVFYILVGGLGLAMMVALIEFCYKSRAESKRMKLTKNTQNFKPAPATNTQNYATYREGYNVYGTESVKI
T2 sequence (P42260+P19492 fused with the stated changes): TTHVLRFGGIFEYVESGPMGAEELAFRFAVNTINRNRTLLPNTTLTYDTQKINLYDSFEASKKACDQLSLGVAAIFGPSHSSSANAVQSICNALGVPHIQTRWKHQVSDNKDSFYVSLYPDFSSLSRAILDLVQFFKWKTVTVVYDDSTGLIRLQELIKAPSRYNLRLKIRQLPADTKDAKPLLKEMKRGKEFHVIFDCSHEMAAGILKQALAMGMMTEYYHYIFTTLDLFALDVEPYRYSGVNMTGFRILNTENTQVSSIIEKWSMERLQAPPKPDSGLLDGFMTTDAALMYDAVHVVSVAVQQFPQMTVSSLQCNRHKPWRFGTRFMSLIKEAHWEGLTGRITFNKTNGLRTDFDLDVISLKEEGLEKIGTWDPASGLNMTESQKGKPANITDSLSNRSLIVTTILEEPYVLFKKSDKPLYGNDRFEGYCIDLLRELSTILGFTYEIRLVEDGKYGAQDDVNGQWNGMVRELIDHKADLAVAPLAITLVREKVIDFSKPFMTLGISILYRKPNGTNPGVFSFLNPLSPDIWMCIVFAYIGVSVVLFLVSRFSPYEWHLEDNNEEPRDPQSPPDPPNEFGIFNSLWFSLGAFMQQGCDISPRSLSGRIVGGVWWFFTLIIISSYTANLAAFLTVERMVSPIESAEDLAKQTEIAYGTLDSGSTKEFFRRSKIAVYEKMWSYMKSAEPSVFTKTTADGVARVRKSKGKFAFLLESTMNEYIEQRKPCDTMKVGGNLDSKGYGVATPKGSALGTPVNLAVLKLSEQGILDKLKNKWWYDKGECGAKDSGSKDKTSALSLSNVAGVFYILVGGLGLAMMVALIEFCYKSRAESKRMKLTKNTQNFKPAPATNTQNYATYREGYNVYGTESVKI
T4 sequence (P19492 23-888 isoform P19492-2 limits assumed): as the sequence (P19492 23-888 isoform P19492-2 L507Y limits assumed) above, with Y485L counted along it

Cc1onc(O)c1CC(N)C(=O)O (racemic) [AMPA, (RS)-alpha-amino-3-hydroxy-5-methyl-4-isoxazoleepropionic acid]
P/S (GluR3 L507Y; agonist 1 mM): 1.05±0.03 | efficacy of opening, ratio glutamate/agonist (GluR3 L507Y; n=7): 0.97±0.03

NS(=O)(=O)c1cc2c(cc1Cl)NC(C1CC3C=CC1C3)NS2(=O)=O (stereo not drawn) [cyclothiazide]
effect on desensitization (result in words) [1]: completely blocked | reduction of peak response (GluR3 L507Y; cyclothiazide (100 µM)): 9.6±2.7% | effect on desensitization (result in words) (R6TM1R3(Y521L)): Desensitization was blocked | inhibition at 100 µM (R6TM1R3): 14 ± 4% | inhibition of the peak response (R3(R6S1)): 12±3% | P/S values (GluR3flip): ~1

C=C(C)[C@H]1CN[C@H](C(=O)O)[C@H]1CC(=O)O [kainate]
desensitization of responses (result in words) (GluR3-S1 chimeras): essentially non-desensitizing
